Test results taken from the NIST ThermoML archive (doi:10.1016/j.jct.2007.11.011).

Conditions: Liquid

CCOS(=O)(=O)[O-].CCn1cc[n+](C)c1 [1-ethyl-3-methylimidazolium ethyl sulfate]
mass density [kg/m3]
Conditions | 100 kPa | 2500 kPa | 5000 kPa | 10000 kPa | 15000 kPa | 20000 kPa | 25000 kPa | 30000 kPa | 35000 kPa
283.15 K | 1246.94 | 1247.9 | 1248.89 | 1250.85 | 1252.79 | 1254.73 | 1256.61 | 1258.47 | 1260.31
293.15 K | 1239.88 | 1240.89 | 1241.91 | 1243.9 | 1245.88 | 1247.83 | 1249.76 | 1251.66 | 1253.57
298.15 K | 1236.35 | 1237.35 | 1238.4 | 1240.44 | 1242.46 | 1244.44 | 1246.41 | 1248.35 | 1250.23
303.15 K | 1232.72 | 1233.78 | 1234.83 | 1237 | 1239.02 | 1241.03 | 1243.02 | 1244.98 | 1246.84
313.15 K | 1226.06 | 1227.11 | 1228.18 | 1230.3 | 1232.38 | 1234.45 | 1236.48 | 1238.47 | 1240.45
323.15 K | 1219.19 | 1220.23 | 1221.36 | 1223.53 | 1225.69 | 1227.8 | 1229.93 | 1231.96 | 1233.91
333.15 K | 1212.42 | 1213.53 | 1214.66 | 1216.87 | 1219.08 | 1221.24 | 1223.33 | 1225.42 | 1227.46
